Where “and” joins values, the source holds several entries; their conditions need not be identical. Identical values can stand only once.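 Exposure lasted 48 hours, with cells grown in 96-well plates and compounds tested at five concentrations. GI50 = concentration required for 50% inhibition of growth. TGI: concentration producing complete growth inhibition.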
Key:
Experiment in all cases: growth of human tumour cells (NCI), 48 h
[1] = system: HCC-2998 colon
[2] = system: U251 CNS
[3] = system: MALME-3M melanoma
[4] = system: DU-145 prostate
[5] = system: PC-3 prostate
[6] = system: K-562 leukemia
[7] = system: OVCAR-3 ovarian
[8] = system: NCI-H460 lung
[9] = system: SK-MEL-2 melanoma
[10] = system: SF-268 CNS

COC(=O)Nc1nc2ccc(Oc3ccc(NC(=O)Nc4cccc(Cl)c4)cc3)cc2[nH]1
GI50 [1]: 7.98 µM
TGI [1]: > 25 µM
GI50 [2]: 1.25 µM
TGI [2]: 5.68 µM
GI50 [3]: 0.564 µM
TGI [3]: 7.95 µM
GI50 [4]: 1.58 µM
TGI [4]: 8.44 µM
GI50 [5]: 1 µM
TGI [5]: 7.1 µM
GI50 [6]: 0.175 µM
TGI [6]: > 25 µM
GI50 [7]: 0.768 µM
TGI [7]: 2.23 µM
GI50 [8]: 0.802 µM
TGI [8]: 3.86 µM
GI50 [9]: 1.07 µM
TGI [9]: 8.06 µM
GI50 [10]: 2.43 µM
TGI [10]: 15.3 µM

COC(=O)C#Cc1ccc([N+](=O)[O-])cc1
TGI [1]: 4.32 µM
TGI [2]: 3.86 µM
TGI [3]: 4.41 µM
TGI [4]: 3.57 µM
TGI [5]: 13.1 µM
TGI [6]: 12.9 µM
TGI [7]: 2.93 µM
TGI [8]: 38.7 µM
TGI [9]: 7.98 µM
TGI [10]: 14 µM

CN(C)CC1CCn2c(c(C3=C(c4cn(C)c5ccccc45)C(=O)NC3=O)c3ccccc32)C1 (stereo not drawn)
GI50 [1]: 4.65 µM
TGI [1]: 8.93 µM
GI50 [2]: 3.95 µM
TGI [2]: 7.64 µM
GI50 [3]: 3.59 µM
TGI [3]: 7.31 µM
GI50 [4]: 4.91 µM
TGI [4]: 10.9 µM
GI50 [5]: 3.71 µM
TGI [5]: 8.03 µM
GI50 [6]: 4.97 µM
TGI [6]: 10.5 µM
GI50 [7]: 3.91 µM
TGI [7]: 8.15 µM
GI50 [8]: 4.57 µM
TGI [8]: 8.68 µM
GI50 [9]: 3.96 µM
TGI [9]: 7.82 µM
GI50 [10]: 3.84 µM
TGI [10]: 7.97 µM

CC(=O)OCC1OC(S[As](C)C)C(OC(C)=O)C1OC(C)=O (stereo not drawn)
GI50 [1]: 0.255 µM
TGI [1]: 1.76 µM
GI50 [2]: 0.546 µM
TGI [2]: 2.72 µM
GI50 [3]: 0.107 µM
TGI [3]: 0.696 µM
GI50 [4]: 0.217 µM
TGI [4]: 0.836 µM
GI50 [5]: 1.11 µM
TGI [5]: 13.1 µM
GI50 [6]: 0.0721 µM
TGI [6]: 0.618 µM
GI50 [7]: 0.0391 µM
TGI [7]: 0.151 µM
GI50 [8]: 2.36 µM
TGI [8]: 14.4 µM
GI50 [9]: 1.2 µM
TGI [9]: 7.82 µM
GI50 [10]: 1.31 µM
TGI [10]: 7.53 µM

CO[C@H](C(=O)N[C@@H](CCCCNC(=O)OCc1ccccc1)C(=O)OC(C)(C)C)[C@@H]1Cc2cc3cc(OC4CC(OC5CC(O)C(O)C(C)O5)C(O)C(C)O4)c(C)c(O)c3c(O)c2C(=O)[C@H]1OC1CC(OC2CC(OC3CC(C)(O)C(O)C(C)O3)C(O)C(C)O2)C(O)C(C)O1 (stereo partly drawn)
GI50 [1]: 0.885 µM
TGI [1]: 3.2 µM
GI50 [2]: 0.529 µM
TGI [2]: 1.94 µM
GI50 [3]: 0.516 µM
TGI [3]: 1.86 µM
GI50 [4]: 0.842 µM
TGI [4]: > 10 µM
GI50 [5]: 0.7 µM
TGI [5]: 8.67 µM
GI50 [6]: 0.635 µM
TGI [6]: > 10 µM
GI50 [7]: 1.39 µM
TGI [7]: > 10 µM
GI50 [8]: 0.364 µM
TGI [8]: 1.49 µM
GI50 [9]: 0.942 µM
TGI [9]: 3.29 µM
GI50 [10]: 0.624 µM
TGI [10]: 2.03 µM

COC(=O)c1c2c(c(C)[n+]([O-])c1C)C(=O)C(NCc1ccc(F)c(F)c1)=CC2=O
GI50 [1]: 2.26 µM
TGI [1]: 5.35 µM
GI50 [2]: 2.06 µM
TGI [2]: 5.85 µM
GI50 [3]: 0.238 µM
TGI [3]: 0.874 µM
GI50 [4]: 2.66 µM
TGI [4]: 7.61 µM
GI50 [5]: 1.91 µM
TGI [5]: 7.75 µM
GI50 [6]: 2.23 µM
TGI [6]: 9.59 µM
GI50 [7]: 0.333 µM
TGI [7]: 1.09 µM
GI50 [8]: 2.13 µM
TGI [8]: 10.2 µM
GI50 [9]: 2.16 µM
TGI [9]: 6.73 µM
GI50 [10]: 2.31 µM
TGI [10]: 7.47 µM

NC(=O)Oc1cc(OC(N)=O)cc(N(CCCl)CCCl)c1
GI50 [1]: 16.9 µM
TGI [1]: 61.9 µM
GI50 [2]: 2.24 µM
TGI [2]: 54.9 µM
GI50 [3]: 5.73 µM
TGI [3]: 23.3 µM
GI50 [4]: 3.06 µM
TGI [4]: 51.2 µM
GI50 [5]: 7.1 µM
TGI [5]: 54.8 µM
GI50 [6]: 10 µM
TGI [6]: > 100 µM
GI50 [7]: 4.74 µM
TGI [7]: 25.9 µM
GI50 [8]: 0.748 µM
TGI [8]: 26.9 µM
GI50 [9]: 15.6 µM
TGI [9]: 47.8 µM
GI50 [10]: 1.88 µM
TGI [10]: 29.4 µM

Cc1ccc(C(=O)NC2CCCCC2)cc1-c1ccc(C(=O)NCC2CC2)cc1
GI50 [1]: > 25 µM
TGI [1]: > 25 µM
GI50 [2]: > 25 µM
TGI [2]: > 25 µM
GI50 [3]: > 25 µM
TGI [3]: > 25 µM
GI50 [4]: > 25 µM
TGI [4]: > 25 µM
GI50 [5]: > 22.8 µM
TGI [5]: > 25 µM
GI50 [6]: 19.4 µM
TGI [6]: > 25 µM
GI50 [7]: > 23 µM
TGI [7]: > 25 µM
GI50 [8]: 16.8 µM
TGI [8]: > 25 µM
GI50 [9]: > 25 µM
TGI [9]: > 25 µM
GI50 [10]: > 25 µM
TGI [10]: > 25 µM

Cn1cnc2c(NCc3ccccc3)nc(NCCO)nc21
GI50 [1]: 115 µM
TGI [1]: 356 µM
GI50 [2]: 133 µM
TGI [2]: > 500 µM
TGI [3]: 241 µM
GI50 [4]: 125 µM
TGI [4]: > 500 µM
GI50 [5]: 41.4 µM
TGI [5]: 283 µM
TGI [6]: 489 µM
GI50 [7]: 33 µM and 115 µM
TGI [7]: > 406 µM
GI50 [8]: 77.8 µM
TGI [8]: 441 µM
GI50 [9]: 44.4 µM
TGI [9]: 178 µM
GI50 [10]: 86.2 µM
TGI [10]: > 91.2 µM and 223 µM

CCOC(=O)c1c(Cl)c2c(n1Cc1cc(OC)cc(OC)c1)-c1oncc1CCC2
GI50 [1]: 15.4 µM
TGI [1]: > 100 µM
GI50 [2]: 0.351 µM
TGI [2]: > 100 µM
GI50 [3]: 0.118 µM
GI50 [4]: 0.35 µM
TGI [4]: 97.7 µM
GI50 [5]: 0.293 µM
TGI [5]: > 100 µM
GI50 [6]: 0.225 µM
TGI [6]: > 100 µM
GI50 [7]: 0.253 µM
TGI [7]: 2.51 µM
GI50 [8]: 0.375 µM
TGI [8]: > 100 µM
GI50 [9]: 0.226 µM
TGI [9]: 4.07 µM
GI50 [10]: 1.65 µM
TGI [10]: > 100 µM

O=C(Cn1ccnc1[N+](=O)[O-])NCC(F)(F)C(F)(F)F
GI50 [1]: > 100 µM
TGI [1]: > 100 µM
GI50 [2]: > 100 µM
TGI [2]: > 100 µM
GI50 [3]: > 100 µM
TGI [3]: > 100 µM
GI50 [4]: > 100 µM
TGI [4]: > 100 µM
GI50 [5]: > 100 µM
TGI [5]: > 100 µM
GI50 [7]: > 100 µM
TGI [7]: > 100 µM
GI50 [8]: > 100 µM
TGI [8]: > 100 µM
GI50 [9]: > 100 µM
TGI [9]: > 100 µM
GI50 [10]: > 100 µM
TGI [10]: > 100 µM

COc1ccc(Nc2ccnc(NCCCNc3ccnc4cc(Cl)ccc34)n2)cc1
GI50 [1]: 1.01 µM
TGI [1]: 2.61 µM
GI50 [2]: 0.59 µM
TGI [2]: 1.89 µM
GI50 [3]: 1.36 µM
TGI [3]: 3.08 µM
GI50 [4]: 2.6 µM
TGI [4]: 10.7 µM
GI50 [5]: 1.63 µM
TGI [5]: 11.2 µM
GI50 [7]: 1.56 µM
TGI [7]: 3.24 µM
GI50 [8]: 1.27 µM
TGI [8]: 2.85 µM
GI50 [9]: 1.61 µM
TGI [9]: 3.21 µM
GI50 [10]: 1.52 µM
TGI [10]: 3.77 µM
